Assay results from patent US6346535B1, “Fungicidal mixtures” (American Cyanamid Company, priority 1999, dated 2002).
Like-named read-outs stand apart in the source and are kept apart here.

Assays:
Format in all cases: in vivo
[1] = test system: Blumeria graminis on wheat; test: Greenhouse trial, 3 day protective, Blumeria graminis on wheat; settings: compound alone
Text: (§1) The fungicides are applied in single treatments, or in a combination comprising a benzophenone of formula I and a compound selected from (A) through (E) as defined above. The compounds are applied in form of an aqueous spray mix obtained from a concentrated formulation or the technical material.
(§2) 1. Seed is planted in 6 cm diameter plastic pots and maintained in the greenhouse.
(§3) 2. When the primary leaf is fully expanded (in the case of cereals) or several leaves are present (in the case of dicots), formulated test compounds are sprayed with a three nozzle overhead fungicide sprayer to near run-off. Alternatively, a single nozzle overhead track sprayer is used for application of the compounds to cereals at a rate of 200 liters/ha (l/ha). Plants are then allowed to air-dry.
(§4) 3. Inoculation precedes treatment in the case of curative evaluations and follows treatment in case of residual evaluations. For inoculation of powdery mildew disease, plants are set up on greenhouse benches with bottom watering mats and inoculated by dusting them with conidia from infected plants. Between inoculation and treatment for curative evaluations and between treatment and inoculation for residual evaluations, plants are maintained in the greenhouse with bottom watering. For inoculation of non-powdery mildew diseases, an aqueous spore suspension of the pathogen is applied to the plant and the plants are kept 1-2 days in a moist infection chamber before being returned to the greenhouse where they are maintained by bottom watering.
(§5) 4. Disease on the foliage as percent leaf area with disease symptoms/signs is evaluated about 7 days after inoculation. In the case of wheat, the tips and bases of the leaves are excluded from the evaluation. [formula]
(§6) 1. Technical compounds are formulated in a solvent/surfactant system consisting of 5% acetone and 0.05% Tween 20 in deionized water. Compounds are dissolved in acetone prior to addition of the water; the Tween 20 can be added through either the acetone or the water. Dilutions are made using the solvent/surfactant system. Formulated compounds are prepared using deionized water.
(§7) Assessments of the diseases took place at the indicated day after the application of the compounds. Per cent infected leaf area infected was evaluated. The efficacy of the compounds/compounds mixtures to control the diseases was calculated by using the formula given above under item 4: […]
(§8) Synergy of a fungicide mixture was determined by comparing the actual (observed) fungicidal activity of the mixture to the expected fungicidal activity of the mixture as calculated using the COLBY formula given hereinabove.
Fungicidal Efficacy of the Mixture of BP-5+Triforine (3 Day Protective) Against Blumeria graminis on Wheat
Fungicidal Efficacy of the Mixture of BP-1+Triadimefon (3 Day Protective) Against Blumeria graminis on Wheat

[2] = test system: Erysiphe cichoracearum on cucumbers; test: Greenhouse trial, 4 day residual, Erysiphe cichoracearum on cucumbers; settings: for pest or weed control at 0.4 ppm / pest or weed control at 2 ppm / pest or weed control at 10 ppm / pest or weed control at 50 ppm: Golovinomyces cichoracearum, 96 h, read-out: Observed Efficacy; for pest or weed control at 50 ppm: dose rate 50 ppm
Text: as §1, §2, §3, §4, §5, §6, §7, §8

[3] = test system: Blumeria graminis on wheat; test: Greenhouse trial, 4 day curative, Blumeria graminis on wheat; settings: compound alone
Method: The trials are carried out under greenhouse (Examples 1 to 18) or field conditions (Example 19) in residual or curative applications. The fungicides are applied in single treatments, or in a combination comprising a benzophenone of formula I and a compound selected from (A) through (E) as defined above. The compounds are applied in form of an aqueous spray mix obtained from a concentrated formulation or the technical material. […] Seed is planted in 6 cm diameter plastic pots and maintained in the greenhouse. […] When the primary leaf is fully expanded (in the case of cereals) or several leaves are present (in the case of dicots), formulated test compounds are sprayed with a three nozzle overhead fungicide sprayer to near run-off. Alternatively, a single nozzle overhead track sprayer is used for application of the compounds to cereals at a rate of 200 liters/ha (l/ha). Plants are then allowed to air-dry. […] Inoculation precedes treatment in the case of curative evaluations and follows treatment in case of residual evaluations. For inoculation of powdery mildew disease, plants are set up on greenhouse benches with bottom watering mats and inoculated by dusting them with conidia from infected plants. Between inoculation and treatment for curative evaluations and between treatment and inoculation for residual evaluations, plants are maintained in the greenhouse with bottom watering. For inoculation of non-powdery mildew diseases, an aqueous spore suspension of the pathogen is applied to the plant and the plants are kept 1-2 days in a moist infection chamber before being returned to the greenhouse where they are maintained by bottom watering. […] Disease on the foliage as percent leaf area with disease symptoms/signs is evaluated about 7 days after inoculation. In the case of wheat, the tips and bases of the leaves are excluded from the evaluation. [formula] […] Compounds are dissolved in acetone prior to addition of the water; the Tween 20 can be added through either the acetone or the water. Dilutions are made using the solvent/surfactant system. Formulated compounds are prepared using deionized water. Assessments of the diseases took place at the indicated day after the application of the compounds. Per cent infected leaf area infected was evaluated. […] Synergy of a fungicide mixture was determined by comparing the actual (observed) fungicidal activity of the mixture to the expected fungicidal activity of the mixture as calculated using the COLBY formula given hereinabove.

[4] = test system: Blumeria graminis f. sp. tritici on wheat; test: Greenhouse trial, 2 day curative, Blumeria graminis f. sp. tritici on wheat; settings: Table XVII, compound alone
Method: as §1, with “The trials are carried out under greenhouse (Examples 1 to 18) or field conditions (Example 19) in residual or curative applications. The fungicides” for “The fungicides”
as §2, §3, §4, §5, §6, §7, §8
Fungicidal Efficacy of the Mixture of Different Benzophenones+Metconazole (2 Day Curative) Against Blumeria graminis f. sp. tritici on Wheat
The tank mixes were obtained from technical material of the benzophenones BP-2 and BP-4 and metconazole.

[5] = test system: Pyrenophora teres on barley; test: Greenhouse trial, 4 day residual, Pyrenophora teres on barley; settings: 4 day residual; for Observed Efficacy: Table XVI (Example 16)
Text: as §1, §2, §3, §4, §5, §6, §7, §8
Fungicidal Efficacy of the Mixture of BP-4+Other Fungicides (4 Day Residual) Against Pyrenophora teres on Barley

[6] = test system: Puccinia recondita on wheat; test: Greenhouse trial, 4 day residual, Puccinia recondita on wheat
Text: as §1, §2, §3, §4, §5, §6, §7, §8
Fungicidal Efficacy of the Mixture of BP-4+Other Fungicides (4 Day Residual) Against Puccinia recondita on Wheat
Fungicidal Efficacy of the Mixture of BP-4+Myclobutanil (4 Day Residual) Against Puccinia recondita on Wheat

[7] = test system: Uncinula necator on vines; test: Greenhouse trial, 1 day residual, Uncinula necator on vines; settings: Table XVIII, compound alone
Method: as §1, with “The trials are carried out under greenhouse (Examples 1 to 18) or field conditions (Example 19) in residual or curative applications. The fungicides” for “The fungicides”
as §2, §3, §4, §5, §6, §7, §8
Fungicidal Efficacy of the Mixture of BP-4+AP-4 (1 Day Residual) Against Uncinula necator on Vines
The tank mixes were obtained from technical material of BP-4 and AP-4. The active ingredients, the type of formulations, the observed and expected efficacies with different rates are given in Table XVIII: […]

[8] = test system: Leptosphaeria nodorum on wheat; test: Greenhouse trial, 4 day residual, Leptosphaeria nodorum on wheat; settings: Table VIII, compound alone
Text: as §1, §2, §3, §4, §5, §6, §7, §8
Fungicidal Efficacy of the Mixture of BP-4+Other Fungicides (4 Day Residual) Against Leptosphaeria nodorum on Wheat

[9] = Table XIV (Example 14), 4 day residual, dose rate 0.4 ppm
[10] = Table XIV (Example 14), 4 day residual, dose rate 2 ppm
[11] = Table XIV (Example 14), 4 day residual, dose rate 10 ppm

CC(C)(C)C(=O)C(Oc1ccc(Cl)cc1)n1cncn1 (stereo not shown) [triadimefon]
Observed Efficacy ([1]; Table V, dose rate 25 ppm): 24%
pest or weed control at 0.4 ppm [2, 9]: 0%
pest or weed control at 2 ppm [2, 10]: 6%
pest or weed control at 10 ppm [2, 11]: 23%
pest or weed control at 50 ppm ([2]; Table XIV (Example 14), 4 day residual): 47%
Observed Efficacy ([3]; Table III, dose rate 25 ppm): 12%
Observed Efficacy ([3]; Table III, dose rate 125 ppm): 30%

COc1cc(C)c(C(=O)c2c(Cl)cccc2Cl)c(OC)c1OC [BP-5, 2,6-dichloro-2′-methyl-4′,5′,6′-trimethoxybenzophenone]
Observed Efficacy ([1]; Table IV, dose rate 5 ppm): 12%
Observed Efficacy ([1]; Table IV, dose rate 25 ppm): 31%

COc1cc(C)c(C(=O)c2c(Cl)cccc2Cl)c(OCc2ccccc2F)c1OC [BP-2, 2,6-dichloro-4′,5′-dimethoxy-6′-(2-fluorobenzyloxy)-2′-methylbenzophenone]
Observed Efficacy ([4]; dose rate 0.67 ppm): 4%
Observed Efficacy ([4]; dose rate 2 ppm): 13%
Observed Efficacy ([4]; dose rate 6 ppm): 18%
Observed Efficacy ([4]; dose rate 18 ppm): 25%
Observed Efficacy ([4]; dose rate 54 ppm): 67%

Fc1cccc(Cl)c1-c1c(Cl)nc2ncnn2c1NC1CC1 [AP-1, 5-chloro-6-(2-chloro-6-fluorophenyl)-7-(cyclopropylamino)-[1,2,4]triazolo[1,5-a]pyrimidine]
Observed Efficacy ([3]; Table I, dose rate 25 ppm): 0%
Observed Efficacy ([3]; Table I, dose rate 125 ppm): 0%

CC1CCN(c2c(-c3c(F)cccc3Cl)c(Cl)nc3ncnn23)CC1 [AP-2, 5-chloro-6-(2-chloro-6-fluorophenyl)-7-(4-methylpiperid-1-yl)-[1,2,4]triazolo[1,5-a]pyrimidine]
Observed Efficacy ([3]; Table II, dose rate 25 ppm): 0%
Observed Efficacy ([3]; Table II, dose rate 125 ppm): 8%

Dinocap [listing 1 of 2 here]
Observed Efficacy ([5]; dose rate 0.4 ppm): 0
Observed Efficacy ([5]; dose rate 2 ppm): 0
Observed Efficacy ([5]; dose rate 10 ppm): 5
Observed Efficacy [2, 9]: 0
Observed Efficacy [2, 10]: 0
Observed Efficacy ([6]; Table XV (Example 15), 4 day residual, dose rate 0.4 ppm): 4
Observed Efficacy ([6]; Table XV (Example 15), 4 day residual, dose rate 2 ppm): 13
Observed Efficacy ([6]; Table XV (Example 15), 4 day residual, dose rate 10 ppm): 23

CC(Nc1c(-c2c(F)cc(F)cc2F)c(Cl)nc2ncnn12)C(F)(F)F (stereo not shown) [AP-4, 5-chloro-6-(2,4,6-trifluorophenyl)-7-[2-(1,1,1-trifluoro)propylamino]-[1,2,4]triazolo[1,5-a]pyrimidine]
Observed Efficacy ([7]; dose rate 0.03 ppm): 13%
Observed Efficacy ([7]; dose rate 0.06 ppm): 7%
Observed Efficacy ([7]; dose rate 0.12 ppm): 32%
Observed Efficacy ([7]; dose rate 0.25 ppm): 50%
Observed Efficacy ([7]; dose rate 0.5 ppm): 76%
Observed Efficacy ([7]; dose rate 1 ppm): 76%

triforine
Observed Efficacy ([8]; dose rate 1 ppm): 0%
Observed Efficacy ([8]; dose rate 4 ppm): 4%
Observed Efficacy ([8]; dose rate 16 ppm): 31%
Observed Efficacy ([8]; dose rate 64 ppm): 51%
Observed Efficacy ([8]; dose rate 256 ppm): 85%
Observed Efficacy ([1]; Table IV, dose rate 125 ppm): 12%
Observed Efficacy ([2]; Table VI, compound alone, dose rate 4 ppm): 1%
Observed Efficacy ([2]; Table VI, compound alone, dose rate 16 ppm): 44%
Observed Efficacy ([2]; Table VI, compound alone, dose rate 64 ppm): 79%
Observed Efficacy ([2]; Table VI, compound alone, dose rate 256 ppm): 96%
Observed Efficacy ([6]; Table VII, compound alone, dose rate 4 ppm): 0%
Observed Efficacy ([6]; Table VII, compound alone, dose rate 16 ppm): 7%
Observed Efficacy ([6]; Table VII, compound alone, dose rate 64 ppm): 90%
Observed Efficacy ([6]; Table VII, compound alone, dose rate 256 ppm): 100%

CCCCC(C#N)(Cn1cncn1)c1ccc(Cl)cc1 (stereo not shown) [Myclobutanil]
pest or weed control at 0.4 ppm ([5]; Pyrenophora teres, 96 h, Table XIII (Example 13), dose rate 0.4 ppm, read-out: Observed Efficacy): 0%
pest or weed control at 2 ppm ([5]; Pyrenophora teres, 96 h, Table XIII (Example 13), dose rate 2 ppm, read-out: Observed Efficacy): 21%
pest or weed control at 10 ppm ([5]; Pyrenophora teres, 96 h, Table XIII (Example 13), dose rate 10 ppm, read-out: Observed Efficacy): 40%
pest or weed control at 50 ppm ([5]; Pyrenophora teres, 96 h, Table XIII (Example 13), dose rate 50 ppm, read-out: Observed Efficacy): 82%
pest or weed control at 0.4 ppm ([2]; Table XI, compound alone, dose rate 0.4 ppm): 36%
pest or weed control at 2 ppm ([2]; Table XI, compound alone, dose rate 2 ppm): 52%
pest or weed control at 10 ppm ([2]; Table XI, compound alone, dose rate 10 ppm): 73%
pest or weed control at 50 ppm ([2]; Table XI, compound alone): 96%
pest or weed control at 0.4 ppm ([6]; Puccinia recondita, 96 h, Table XII, compound alone, dose rate 0.4 ppm, read-out: Observed Efficacy): 13%
pest or weed control at 2 ppm ([6]; Puccinia recondita, 96 h, Table XII, compound alone, dose rate 2 ppm, read-out: Observed Efficacy): 52%
pest or weed control at 10 ppm ([6]; Puccinia recondita, 96 h, Table XII, compound alone, dose rate 10 ppm, read-out: Observed Efficacy): 72%
pest or weed control at 50 ppm ([6]; Puccinia recondita, 96 h, Table XII, compound alone, dose rate 50 ppm, read-out: Observed Efficacy): 99%

Dinocap [listing 2 of 2 here]
Observed Efficacy ([5]; dose rate 50 ppm): 22
Observed Efficacy [2, 11]: 0
Observed Efficacy ([6]; Table XV (Example 15), 4 day residual, dose rate 50 ppm): 54
